The source of these data is patent US20210228653A1, “BACILLUS LICHENIFORMIS STRAIN WITH PROBIOTIC ACTIVITY” (EVONIK DEGUSSA GMBH, priority 2016, published 2021).

“And” between values parts separate entries of the source, which are not always exact repeats. Identical values can stand only once.

On the set-up of the experiment: species or system broiler chickens (Vencobb 400). Particulars: in vivo.

With “Bacitracin Methylene Disalicyclate [BMD]”, the “FCR (feed conversion ratio, feed to gain)” value is 1.42 g/g and 1.74 g/g; the “FCR compared to the control (in words)” value is on record as “reduced”; the “body weight compared to the control (in words)” value was “improved the body weight”.
